Reference: patent US9873709B2 (priority 2013, dated 2018)
Structures can show the parent of a compound that is named as a salt. Where two headings read alike, the source gives them in different places.

How the values were obtained:
[1] = target: T1, isolated recombinant JAK2 kinase domain (Homo sapiens (Human), UniProt O60674); assay: biochemical
[2] = tested on: JAK1-dependent STAT6 phosphorylation downstream of IL-13 stimulation in TF-1 human erythroleukemia cells; assay: cells; details: TF-1, read-out: IL-13-pSTAT6 IC50
[3] = target: T1, isolated recombinant JAK2 kinase domain; details: read-out: JAK2 Ki; isolated recombinant JAK2 kinase domain, 25 μM ATP
[4] = tested on: JAK1-dependent STAT6 phosphorylation downstream of IL-13 stimulation in BEAS-2B human bronchial epithelial cells; assay: cells; details: read-out: IL13-pSTAT6 BEASB2B IC50
Protocol: Inhibitor potency (EC50) was determined in cell-based assays designed to measure JAK1 dependent STAT phosphorylation.
Prior to use in the assays, TF-1 cells were starved of GM-CSF overnight in OptiMEM medium (Life Technologies, Grand Island, N.Y.) supplemented with 0.5% charcoal/dextran stripped fetal bovine serum (FBS), 0.1 mM non-essential amino acids (NEAA), and 1 mM sodium pyruvate. The assays were run in 384-well plates in serum-free OptiMEM medium using 300,000 cells per well. In a second assay approach, BEAS-2B human bronchial epithelial cells obtained from ATCC were plated at 100,000 cells per well of a 96-well plate one day prior to the experiment. The BEAS-2B assay was run in complete growth medium (bronchial epithelial basal medium plus bulletkit; Lonza; Basel, Switzerland).
Test compounds were serially diluted 1:2 in DMSO and then diluted 1:50 in medium just before use. Diluted compounds were added to the cells, for a final DMSO concentration of 0.2%, and incubated for 30 min (for the TF-1 assay) or 1 hr (for the BEAS-2B assay) at 37° C. Then, cells were stimulated with human recombinant cytokine at their respective EC90 concentrations, as previously determined for each individual lot. […] The resultant samples were frozen in the plates at −80° C. Compound mediated inhibition of STAT6 phosphorylation was measured in the cell lysates using MesoScale Discovery (MSD) technology (Gaithersburg, Md.).

[5] = tested on: JAK1-dependent STAT6 phosphorylation downstream of IL-13 stimulation in TF-1 human erythroleukemia cells; details: read-out: IL-13-pSTAT6 IC50, TF-1 cells

T1 sequence (O60674 849-1124): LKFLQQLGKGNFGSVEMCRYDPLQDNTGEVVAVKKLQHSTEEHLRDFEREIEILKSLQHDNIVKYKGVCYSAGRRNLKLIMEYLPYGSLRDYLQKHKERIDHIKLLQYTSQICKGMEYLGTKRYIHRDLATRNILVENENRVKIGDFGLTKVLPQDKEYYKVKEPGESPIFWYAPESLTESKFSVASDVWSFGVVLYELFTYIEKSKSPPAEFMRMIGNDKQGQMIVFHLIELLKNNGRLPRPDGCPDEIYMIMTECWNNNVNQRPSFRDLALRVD

SMILES | Ki [1] [nM] | IC50 [2] [nM] | Ki [3] [nM] | IC50 [4] [nM] | IC50 [5] [nM]
CC(=O)NC1CCN(c2cccn3nc(Nc4ccc(C(=O)N(C)C5CCN(C)CC5)cc4)nc23)CC1 [Example 1-9, 4-[[8-(4-acetamido-1-piperidyl)-[1,2,4]triazolo[1,5-a]pyridin-2-yl]amino]-N-methyl-N-(1-methyl-4-piperidyl)benzamide; hydrochloride] | 63.2 |  |  |  | 
CC(=O)N1CCN(c2cccn3nc(Nc4ccc(C(=O)N(C)C5CCN(C)CC5)cc4)nc23)CC1 [Example 1-10, 4-[[8-(4-acetylpiperazin-1-yl)-[1,2,4]triazolo[1,5-a]pyridin-2-yl]amino]-N-methyl-N-(1-methyl-4-piperidyl)benzamide] | 74.7 | > 10000 |  |  | 
CN1CCC(N(C)C(=O)c2ccc(Nc3nc4c(N5CCC(C#N)CC5)cccn4n3)cc2)CC1 [Example 1-11, 4-[[8-(4-cyano-1-piperidyl)-[1,2,4]triazolo[1,5-a]pyridin-2-yl]amino]-N-methyl-N-(1-methyl-4-piperidyl)benzamide] | 6.28 | 235 |  |  | 
CN1CCC(N(C)C(=O)c2ccc(Nc3nc4c(N5CCCCC5)cccn4n3)cc2)CC1 [Example 1-12, N-methyl-N-(1-methyl-4-piperidyl)-4-[[8-(1-piperidyl)-[1,2,4]triazolo[1,5-a]pyridin-2-yl]amino]benzamide; dihydrochloride] | 77.5 | 3400 |  |  | 
CN1CCC(N(C)C(=O)c2ccc(Nc3nc4c(N5CCN(c6ccccc6)CC5)cccn4n3)cc2)CC1 [Example 1-13, N-methyl-N-(1-methyl-4-piperidyl)-4-[[8-(4-phenylpiperazin-1-yl)-[1,2,4]triazolo[1,5-a]pyridin-2-yl]amino]benzamide] | 13.1 | 494 |  |  | 
CN1CCC(N(C)C(=O)c2ccc(Nc3nc4c(N5CCC(O)(c6cccnc6)CC5)cccn4n3)cc2)CC1 [Example 1-19, 4-[[8-[4-hydroxy-4-(3-pyridyl)-1-piperidyl]-[1,2,4]triazolo[1,5-a]pyridin-2-yl]amino]-N-methyl-N-(1-methyl-4-piperidyl)benzamide] | 32 |  |  |  | 
CN1CCC(N(C)C(=O)c2ccc(Nc3nc4c(N5CCC(C(C)(C)O)CC5)cccn4n3)cc2)CC1 [Example 1-29, 4-[[8-[4-(1-hydroxy-1-methyl-ethyl)-1-piperidyl]-[1,2,4]triazolo[1,5-a]pyridin-2-yl]amino]-N-methyl-N-(1-methyl-4-piperidyl)benzamide] | 47.4 |  |  |  | 
CN1CCC(N(C)C(=O)c2ccc(Nc3nc4c(N5CCC(O)(c6ccc(F)cc6)CC5)cccn4n3)cc2)CC1 [Example 1-37, 4-[[8-[4-(4-fluorophenyl)-4-hydroxy-1-piperidyl]-[1,2,4]triazolo[1,5-a]pyridin-2-yl]amino]-N-methyl-N-(1-methyl-4-piperidyl)benzamide] | 6.7 | 76.3 |  |  | 
CC(C)c1ccc(C2(O)CCN(c3cccn4nc(Nc5ccc(C(=O)N(C)C6CCN(C)CC6)cc5)nc34)CC2)cc1 [Example 1-38, 4-[[8-[4-hydroxy-4-(4-isopropylphenyl)-1-piperidyl]-[1,2,4]triazolo[1,5-a]pyridin-2-yl]amino]-N-methyl-N-(1-methyl-4-piperidyl)benzamide] | 5.59 | 152 |  |  | 
NCCNC(=O)c1ccc(Nc2nc3c(N4CCC(O)(c5ccc(Cl)cc5)CC4)cccn3n2)cc1 [Example 1-175, N-(2-aminoethyl)-4-[[8-[4-(4-chlorophenyl)-4-hydroxy-1-piperidyl]-[1,2,4]triazolo[1,5-a]pyridin-2-yl]amino]benzamide] | 0.92 | 189 |  |  | 
O=C(c1ccc(Nc2nc3c(N4CCC(O)(c5ccc(Cl)cc5)CC4)cccn3n2)cc1)N1CCNCC1 [Example 1-177, [4-[[8-[4-(4-chlorophenyl)-4-hydroxy-1-piperidyl]-[1,2,4]triazolo[1,5-a]pyridin-2-yl]amino]phenyl]-piperazin-1-yl-methanone] | 1.51 | 23.2 |  |  | 
CN1CCCC12CN(C(=O)c1ccc(Nc3nc4c(N5CCC(CO)(c6ccc(Cl)cc6)CC5)cccn4n3)cc1)C2 [Example 1-274, [4-[[8-[4-(4-chlorophenyl)-4-(hydroxymethyl)-1-piperidyl]-[1,2,4]triazolo[1,5-a]pyridin-2-yl]amino]phenyl]-(5-methyl-2,5-diazaspiro[3.4]octan-2-yl)methanone] |  | 7.9 | 0.17 | 28.9 | 
CNC1CN(C(=O)c2ccc(Nc3nc4c(N5CCC(CO)(c6ccc(Cl)cc6)CC5)cccn4n3)cc2)C1 [Example 1-283, [4-[[8-[4-(4-chlorophenyl)-4-(hydroxymethyl)-1-piperidyl]-[1,2,4]triazolo[1,5-a]pyridin-2-yl]amino]phenyl]-[3-(methylamino)azetidin-1-yl]methanone] | 0.15 | 15.5 |  | 31.3 | 
CN1CCC(N(C)C(=O)c2ccc(Nc3nc4c(N5C[C@@H]6C[C@](O)(c7ccccc7)C[C@@H]6C5)cccn4n3)cc2)CC1 [Example 1-292] | 18.5 |  |  |  | 
CN1CCC(N(C)C(=O)c2ccc(Nc3nc4c(C5=CCN(C(=O)C6CCC(C#N)CC6)CC5)cccn4n3)cc2)CC1 (stereo not shown) [Example 2-285, 4-[[8-[1-(4-cyanocyclohexanecarbonyl)-3,6-dihydro-2H-pyridin-4-yl]-[1,2,4]triazolo[1,5-a]pyridin-2-yl]amino]-N-methyl-N-(1-methyl-4-piperidyl)benzamide] |  |  |  |  | 739
CNC(=O)C1CN(C(C)C)CCN1C(=O)c1ccc(Nc2nc3c(C4=CCN(C(=O)CCC(F)(F)F)CC4)cccn3n2)cc1 (stereo not shown) [Example 2-327, 4-isopropyl-N-methyl-1-[4-[[8-[1-(4,4,4-trifluorobutanoyl)-3,6-dihydro-2H-pyridin-4-yl]-[1,2,4]triazolo[1,5-a]pyridin-2-yl]amino]benzoyl] piperazine-2-carboxamide] |  |  |  |  | 19.9
